The numbers were not newly measured in patent US7842720B2, “Anticancer and antiprotozoal dihydroartemisinene and dihydroartemisitene dimers with desirable chemical functionalities” (Elsohly Laboratories, Incorporated, priority 2004, dated 2010), which cites them from elsewhere.

One data set deals with malaria. Particulars: comparison among artemisinin derivatives.
Data set [1] deals with chloroquine-sensitive and chloroquine-resistant strains of Plasmodium falciparum.

Take `C[C@H]1[C@H](OC(=O)CCC(=O)[O-])O[C@@H]2O[C@@]3(C)CC[C@H]4[C@H](C)CC[C@@H]1[C@@]24OO3.[Na+]` [sodium artesunate]: the “anti-malarial activity relative to comparator” value with malaria is reported as “more activity”.

With `C[C@@H]1CC[C@H]2[C@@H](C)C(=O)O[C@@H]3O[C@@]4(C)CC[C@@H]1[C@]32OO4` [artemisinin], the anti-malarial activity result in data set [1] was “anti-malarial activity”.
